For the assay, the target named is T1, androgen receptor (AR) (Homo sapiens, UniProt P10275).
T1 sequence (P10275 1-920): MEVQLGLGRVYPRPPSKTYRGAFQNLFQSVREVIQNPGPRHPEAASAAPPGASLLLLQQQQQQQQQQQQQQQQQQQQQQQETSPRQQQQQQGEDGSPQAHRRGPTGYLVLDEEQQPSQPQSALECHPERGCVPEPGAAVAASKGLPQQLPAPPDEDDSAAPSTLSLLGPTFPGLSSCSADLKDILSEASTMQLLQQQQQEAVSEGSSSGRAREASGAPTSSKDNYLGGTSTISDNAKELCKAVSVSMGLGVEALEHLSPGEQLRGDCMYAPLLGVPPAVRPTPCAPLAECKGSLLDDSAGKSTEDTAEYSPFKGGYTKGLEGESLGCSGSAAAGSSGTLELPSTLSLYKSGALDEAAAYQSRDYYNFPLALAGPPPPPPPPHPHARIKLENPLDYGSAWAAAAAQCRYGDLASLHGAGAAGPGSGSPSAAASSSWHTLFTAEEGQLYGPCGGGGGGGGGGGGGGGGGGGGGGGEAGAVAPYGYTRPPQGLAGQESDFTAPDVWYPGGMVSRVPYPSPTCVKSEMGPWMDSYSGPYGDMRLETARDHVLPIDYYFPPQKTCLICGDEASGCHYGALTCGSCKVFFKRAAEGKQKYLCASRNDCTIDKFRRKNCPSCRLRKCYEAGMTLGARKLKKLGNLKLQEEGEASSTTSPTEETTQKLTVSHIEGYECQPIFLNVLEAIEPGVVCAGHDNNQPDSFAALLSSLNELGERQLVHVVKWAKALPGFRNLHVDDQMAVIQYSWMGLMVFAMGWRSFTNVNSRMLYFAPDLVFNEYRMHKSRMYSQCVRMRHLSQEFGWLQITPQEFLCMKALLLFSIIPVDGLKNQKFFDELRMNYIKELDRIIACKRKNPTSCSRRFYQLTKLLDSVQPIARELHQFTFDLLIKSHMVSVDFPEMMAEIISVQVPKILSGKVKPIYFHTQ
The assay can be described thus: Degradation of androgen receptor (AR) protein in VCaP cells by ELISA. In kind it is cell-based. Conditions: AR degradation, VCaP cells, 16 h, ELISA, Table 3-2; for DC50: read-out: DC50; for Dmax: VCaP, read-out: Dmax (%).

Where only a bound is given, the exact number is not on record here.

Usually DC50 stands for the concentration giving 50% degradation. For orientation: Dmax means the largest share of the target that was removed. For the molecule `CC1(C)[C@H](Oc2ccc(C#N)c(Cl)c2)C(C)(C)[C@H]1N1Cc2nc(N3CCC(CN4CCN(c5ccc6c(c5)C(=O)N(C5CCC(=O)NC5=O)C6=O)CC4)CC3)cnc2C1=O` (stereo partly drawn) [Compound 385], the DC50 was in the range of 100 to 300 nM and the maximal degradation (Dmax) lay within 60 to 80%.

`CC1(C)[C@H](Oc2ccc(C#N)c(Cl)c2)C(C)(C)[C@H]1N1Cc2nc(C#CC3CCC(N4CC5CC4CN5c4cc5c(cc4F)C(=O)N(C4CCC(=O)NC4=O)C5=O)CC3)cnc2C1=O` (stereo partly drawn) [Compound 386]: the DC50 is more than 300 nM and the Dmax is 40 to 60%.

Take `CC1(C)[C@H](Oc2ccc(C#N)c(Cl)c2)C(C)(C)[C@H]1N1Cc2nc(C#CC3CCC(N4CC5CC4CN5c4cc5c(cc4F)C(=O)N(C4CCC(=O)NC4=O)C5=O)CC3)cnc2C1=O` (stereo partly drawn) [Compound 387]: the “Dmax (%)” value is “+ (<40%)” and the DC50 is more than 300 nM.

For `CC1(C)[C@H](Oc2ccc(C#N)c(Cl)c2)C(C)(C)[C@H]1N1Cc2nc(C#CC3CCC(N4CC5CC4CN5c4ccc5c(c4)C(=O)N(C4CCC(=O)NC4=O)C5=O)CC3)cnc2C1=O` (stereo partly drawn) [Compound 388, 2-Chloro-4-((1r,3r)-3-(2-((4-(5-(2-(2,6-dioxopiperidin-3-yl)-1,3-dioxoisoindolin-5-yl)-2,5-diazabicyclo[2.2.1]heptan-2-yl)cyclohexyl)ethynyl)-5-oxo-5,7-dihydro-pyrrolo[3,4-b]pyrazine-26-yl)-2,2,4,4-tetramethylcyclobutoxy) benzonitrile], the “Dmax (%)” value is listed as “++ (60%-40%)” and the DC50 fell in the range of 100 to 300 nM.

For the molecule `CC1(C)[C@H](Oc2ccc(C#N)c(Cl)c2)C(C)(C)[C@H]1N1Cc2nc(C#CC3CCC(N4CC5CC4CN5c4ccc5c(c4)C(=O)N(C4CCC(=O)NC4=O)C5=O)CC3)cnc2C1=O` (stereo partly drawn) [Compound 389, 2-Chloro-4-((1r,3r)-3-(2-((4-(5-(2-(2,6-dioxopiperidin-3-yl)-1,3-dioxoisoindolin-5-yl)-2,5-diazabicyclo[2.2.1]heptan-2-yl)cyclohexyl)ethynyl)-5-oxo-5,7-dihydro-pyrrolo[3,4-b]pyrazine-26-yl)-2,2,4,4-tetramethylcyclobutoxy) benzonitrile], the DC50 is more than 300 nM and the greatest degradation seen (Dmax) is less than 40%.

`CC1(C)[C@H](Oc2ccc(C#N)c(Cl)c2)C(C)(C)[C@H]1N1Cc2nc(C#C[C@H]3C[C@H](N4CCN(c5ccc6c(c5)C(=O)N(C5CCC(=O)NC5=O)C6=O)CC4)C3)cnc2C1=O` (stereo partly drawn) [Compound 390]: the DC50 was less than 10 nM and the greatest degradation seen (Dmax) was in the range of 60 to 80%.

Take `CC1(C)[C@H](Oc2ccc(C#N)c(Cl)c2)C(C)(C)[C@H]1N1Cc2nc(C#C[C@H]3C[C@H](N4CCN(c5cc6c(cc5F)C(=O)N(C5CCC(=O)NC5=O)C6=O)CC4)C3)cnc2C1=O` (stereo partly drawn) [Compound 391]: the DC50 fell in the range of 100 to 300 nM and the Dmax is more than 80%.

For `COc1cc(O[C@H]2C(C)(C)[C@H](N3Cc4nc(C#C[C@H]5C[C@H](N6CCN(c7ccc8c(c7)C(=O)N(C7CCC(=O)NC7=O)C8=O)CC6)C5)ccc4C3=O)C2(C)C)ccc1C#N` (stereo partly drawn) [Compound 392], the DC50 lay within 10 to 100 nM and the greatest degradation seen (Dmax) was more than 80%.

In the case of `COc1cc(O[C@H]2C(C)(C)[C@H](N3Cc4nc(C#C[C@H]5C[C@H](N6CCN(c7cc8c(cc7F)C(=O)N(C7CCC(=O)NC7=O)C8=O)CC6)C5)ccc4C3=O)C2(C)C)ccc1C#N` (stereo partly drawn) [Compound 393], the DC50 lay within 10 to 100 nM and the maximal degradation (Dmax) is more than 80%.

As to `CC1(C)[C@H](Oc2ccc(C#N)c(Cl)c2)C(C)(C)[C@H]1N1Cc2nc(C#C[C@H]3C[C@H](N4CCN(c5cnn(C6CCC(=O)NC6=O)c(=O)c5)CC4)C3)ccc2C1=O` (stereo partly drawn) [Compound 394], the DC50 fell in the range of 10 to 100 nM and the Dmax lay within 60 to 80%.

With `CC1(C)[C@H](Oc2ccc(C#N)c(Cl)c2)C(C)(C)[C@H]1N1Cc2nc(C#C[C@H]3C[C@H](N4CCN(c5cc(=O)n(C6CCC(=O)NC6=O)cn5)CC4)C3)ccc2C1=O` (stereo partly drawn) [Compound 395], the DC50 fell in the range of 100 to 300 nM and the Dmax lay within 40 to 60%.

On to `CC1(C)[C@H](Oc2ccc(C#N)c(Cl)c2)C(C)(C)[C@H]1N1Cc2nc(C#C[C@H]3C[C@H](N4CCN(c5ccc6c(=O)n(C7CCC(=O)NC7=O)cnc6c5)CC4)C3)ccc2C1=O` (stereo partly drawn) [Compound 396], for which the half-maximal degradation concentration (DC50) lay in the range of 10 to 100 nM and the Dmax was more than 80%.

The values above are taken from patent publication US20230091225A1, “Bifunctional chimeric heterocyclic compounds for targeted degradation of androgen receptors and use thereof” (HINOVA PHARMACEUTICALS INC., priority 2019, published 2023).
